Reference: US20250269036A1, “METHODS FOR ENHANCEMENT OF ENGINEERED CELL THERAPIES IN CANCER TREATMENT” (PURDUE RESEARCH FOUNDATION, priority 2021, published 2025)
Entries after “also recorded” stand apart in the source; their conditions may differ.

What was measured:
[1] = tested on: M2-induced THP-1 macrophages; assay: Secreted CCL18 and IL-1β in THP-1 macrophage supernatants by ELISA; type: cell-based, human; conditions: ELISA, low concentration range (0.1-10 nM)
Experimental: FIGS. 6A-6D show graphical data representative of various marker levels measured from M2-induced THP-1 macrophages treated with different concentrations of drugs for 48 hours (FIGS. 6A and 6B) or for 2 hours, then displaced with fresh medium and cultured for the remaining 46 hours (FIGS. 6C and 6D). In both cases, cell supernatants were collected and secreted CCL18 protein and IL-1β was detected by ELISA.
CCL18 and IL-1β were quantified in induced THP-1 cell supernatants using a human DuoSet ELISA Development System (R&D Systems Europe, Abingdon, UK; #DY394-05) and an IL-1 beta Human ELISA Kit (Thermo Fisher Scientific, Waltham, MA; #BMS224-2) as described by manufactures. BALF samples were analyzed for mouse IFN-γ using ELISA MAX™ Deluxe (Biolegend, San Diego, CA; #430804).

[2] = tested on: IL-4, IL-6 plus IL-13 stimulated THP-1 cells (M2-like macrophages); assay: Reprogramming of M2-polarized THP-1 macrophages, marker mRNA by qPCR; type: cell-based, human; conditions: 2 hours; for CCL18 relative expression / CD206 relative expression / IL-1β relative expression: different nM concentrations, qPCR
Experimental: THP-1 cells were initially selected as a model system because this human monocytic cell line is known to acquire an M2-like phenotype and produce significant quantities of anti-inflammatory cytokines upon stimulation with IL-4, IL-6 plus IL-13.
THP-1 cells were seeded into 96-well plates at a density of 60,000 cells/well. Cells were differentiated into unpolarized macrophages by 48 hours incubation with 200 nM PMA followed by 24 hours incubation in fresh RPMI medium. […] Cultures were maintained at 37° C. in a humidified 5% CO2 incubator.
Total RNA was isolated from 1×10^5-2×10^5 macrophages using a Quick-RNATM MicroPrep kit (Zymo Research, Irvine, CA) according to the manufacturer-recommended protocol. […] IL-6, CXCL10, IFNα, IFN-γ and CD86 were used as markers for an M1 phenotype, while CCL18, CD206, CD163 and Arg1 were employed as markers for the M2 phenotype. IL-1β, PDGFβ, MMP9 and TIMP 3 were measured as indicators of an anti-inflammatory phenotype. IRAK-4 was used as an indicator of TLR7 stimulation. To control for specificity of the amplification products, a melting curve analysis was performed. […] Each sample was analyzed independently in triplicate for each marker.
Primarily, human monocytic (THP-1) cells were induced to the M2-like phenotype using the methods and materials previously described. In particular, THP-1 cells were seeded into 96-well plates at a density of 60,000 cells/well. Cells were differentiated into unpolarized macrophages by 48h incubation with 200 nM PMA followed by 24 hours incubation in fresh RPMI medium. The resulting macrophages were polarized to an M2-like phenotype by incubation with 20 ng/ml IL-4, 20 ng/ml IL-13, and 5 ng/mL IL-6 for 48h. Cultures were maintained at 37° C. in a humidified 5% CO2 incubator.
In addition to the nonconjugated TLR7 agonist, conjugated compounds of the present disclosure were likewise evaluated. […] The cells were subsequently harvested for gene analysis by qPCR and the relative expression of CCL18 (FIG. 14A), CD206 (FIG. 14B), and IL-1β (FIG. 14C) analyzed.

healthy mice = assay: Plasma cytokine levels in healthy mice after tail vein injection; type: in vivo; conditions: healthy mice, tail vein, 10 nmol, 1 hour or 1.5 hours after treatment
Experimental: (FIGS. 20A-C) Measurement of plasma IL-6 (FIG. 20A), IFNα (FIG. 20B) and TNFα (FIG. 20C) (n=3). (FIGS. 20D-F). The effect of drug concentration on plasma levels of IL-6 (FIG. 20D), IFNα (FIG. 20E), and TNFα (FIG. 20F) was determined at 1.5h, 1h, or 1h after treatment, respectively (n=2) (FIG. 20G).
(FIGS. 36C and 36D). The effect of drug on plasma levels of IL-6 (FIG. 36C) and TNFα (FIG. 36D) was determined at 1 hour or 1.5 hours after treatment.

[3] = tested on: FRβ positive macrophages in the inflamed lung; assay: In vivo folate receptor labeling of lung macrophages, flow cytometry; design: species or system C57BL/6 mice
Experimental: (§1) To evaluate if anti-inflammatory lung macrophages in these mice can be specifically targeted with folate-linked drugs, 10 days after the instillation, 10 nmol (for in vivo imaging) or 100 nmol (for in vivo labeling) of a folate-linked, near infrared fluorescent dye (OTL38) with or without 200-fold excess of FA-glucosamine (a competitor of OTL38) was injected into the tail veins of BM-treated mice and the dye uptake in the major organs was evaluated.
Finally, for the in vivo folate imaging studies, major organs (heart, lung, spleen, liver, small intestine, large intestine, and kidney) were resected and imaged using an AMI live imager (Spectral Instruments Imaging, Tucson, AZ). […] Labeled macrophages were then washed twice in PBS, stained with 7AAD (viability stain) for 15 min and analyzed by flow cytometry using BD Accuri C6 Software (BD Biosciences, San Jose, CA).
FIGS. 7C and 7D show FRβ IHC staining of human IPF lung tissue (FIG. 7C) and healthy human lung tissue (FIG. 7D). […] For in vivo folate receptor labeling studies, lungs of the mice were harvested immediately following euthanasia, digested and then labeled with antibodies to desired macrophages markers (FITC-CD11b, PE-F4/80) and 7AAD (live/dead staining) and analyzed by flow cytometry. […]

[4] = tested on: FRβ-expressing macrophages; assay: In vivo folate imaging of organs with OTL38; design: species or system C57BL/6 mice
Experimental: as §1
Finally, for the in vivo folate imaging studies, major organs (heart, lung, spleen, liver, small intestine, large intestine, and kidney) were resected and imaged using an AMI live imager (Spectral Instruments Imaging, Tucson, AZ). For in vivo folate receptor labeling studies, lungs of the mice were harvested immediately following euthanasia, digested with a lung dissociation kit (Miltenyi Biotec, Bergisch Gladbach, DE; #130-098-427) as described by gentleMACS Octo Dissociator with Heathers (Miltenyi Biotec, Bergisch Gladbach, DE; #130-096-427) as described by manual and filtered through a 70 μm cell strainer (Miltenyi Biotec, Bergisch Gladbach, DE; #130-098-462). Cells collected in the filtrate were depleted of erythrocytes by […] lysis, washed 2x in cold PBS and labeled for 30 min on ice with antibodies to desired macrophage markers (FITC-CD11b, Biolegend, San Diego, CA; #101205; FE-F4/80, Biolegend, San Diego, CA; #123109). Labeled macrophages were then washed twice in PBS, stained with 7AAD (viability stain) for 15 min and analyzed by flow cytometry using BD Accuri C6 Software (BD Biosciences, San Jose, CA).
FIGS. 7C and 7D show FRβ IHC staining of human IPF lung tissue (FIG. 7C) and healthy human lung tissue (FIG. 7D). […] After 2 hours, mice were sacrificed prior to analysis. […] For in vivo folate receptor labeling studies, lungs of the mice were harvested immediately following euthanasia, digested and then labeled with antibodies to desired macrophages markers (FITC-CD11b, PE-F4/80) and 7AAD (live/dead staining) and analyzed by flow cytometry.

Row | Compound | secretion of CCL18 protein [1] | CCL18 relative expression [2] | CD206 relative expression [2] | IL-1β relative expression [2] | also measured
1 | Nc1nc2ncc(CNc3ccc(C(=O)N[C@@H](CCC(=O)NCCOCCOCCOCCOCC4CCCN(CCNc5ccc(Cn6c(=O)[nH]c7c(N)nc(C(F)(F)F)cc76)cn5)C4)C(=O)O)cc3)nc2c(=O)[nH]1 (stereo partly shown) [Compound 3D] | downregulated | reduced | reduced | reduced | effectiveness in reducing M2 markers relative to the other compounds ([2]; CCL18, CD206, IL-1β): most effective
2 | CCOCc1nc2c(N)nc3ccccc3c2n1CC(C)(C)O [Compound A, reference compound] |  |  |  |  | systemic cytokine release (plasma IL-6, TNFα) (healthy mice): stimulated systemic cytokine release
3 | Nc1nc(C(F)(F)F)cc2c1[nH]c(=O)n2Cc1ccc(NCCN2CCCC(CO)C2)nc1 (stereo not shown) [Compound 3A] | downregulated |  |  |  | 
4 | OTL38 |  |  |  |  | folate-dye retention in macrophage-like cells with competitor ([3]; 100 nmol plus 200-fold excess folate-glucosamine): blocked essentially all folate-dye retention; macrophage-like cells showing folate-targeted dye retention ([3]; fibrotic mice, 100 nmol, tail vein): about 22%; lung accumulation with competitor ([4]; BM-treated mice, simultaneous 200-fold excess folate-glucosamine): nearly quantitative blockade of lung accumulation; OTL38 fluorescence in organs of healthy mice ([4]; tail vein, 10 nmol, 2 hours): only observed in the kidneys; accumulation in lungs of BM-treated mice ([4]; tail vein, 10 nmol, day 10 post BM, 2 hours): in the lungs of BM-treated but not healthy mice; also recorded: pronounced accumulation in the fibrotic lungs
5 | Nc1nc2ncc(CNc3ccc(C(=O)NC(CCC(=O)N[C@@H](CSSCCOC(=O)OCC4CCCN(CCNc5ccc(Cn6c(=O)[nH]c7c(N)nc(C(F)(F)F)cc76)cn5)C4)C(=O)O)C(=O)O)cc3)nc2c(=O)[nH]1 (stereo partly shown) [Compound 3B] | downregulated | reduced | reduced | reduced | 
